In ChEMBL document CHEMBL5244261, “Insights of tankyrases: A novel target for drug discovery” (Eur J Med Chem, 2020):

Target: T1, Poly [ADP-ribose] polymerase tankyrase-1 (Homo sapiens, UniProt O95271)
T1 sequence (O95271 whole entry): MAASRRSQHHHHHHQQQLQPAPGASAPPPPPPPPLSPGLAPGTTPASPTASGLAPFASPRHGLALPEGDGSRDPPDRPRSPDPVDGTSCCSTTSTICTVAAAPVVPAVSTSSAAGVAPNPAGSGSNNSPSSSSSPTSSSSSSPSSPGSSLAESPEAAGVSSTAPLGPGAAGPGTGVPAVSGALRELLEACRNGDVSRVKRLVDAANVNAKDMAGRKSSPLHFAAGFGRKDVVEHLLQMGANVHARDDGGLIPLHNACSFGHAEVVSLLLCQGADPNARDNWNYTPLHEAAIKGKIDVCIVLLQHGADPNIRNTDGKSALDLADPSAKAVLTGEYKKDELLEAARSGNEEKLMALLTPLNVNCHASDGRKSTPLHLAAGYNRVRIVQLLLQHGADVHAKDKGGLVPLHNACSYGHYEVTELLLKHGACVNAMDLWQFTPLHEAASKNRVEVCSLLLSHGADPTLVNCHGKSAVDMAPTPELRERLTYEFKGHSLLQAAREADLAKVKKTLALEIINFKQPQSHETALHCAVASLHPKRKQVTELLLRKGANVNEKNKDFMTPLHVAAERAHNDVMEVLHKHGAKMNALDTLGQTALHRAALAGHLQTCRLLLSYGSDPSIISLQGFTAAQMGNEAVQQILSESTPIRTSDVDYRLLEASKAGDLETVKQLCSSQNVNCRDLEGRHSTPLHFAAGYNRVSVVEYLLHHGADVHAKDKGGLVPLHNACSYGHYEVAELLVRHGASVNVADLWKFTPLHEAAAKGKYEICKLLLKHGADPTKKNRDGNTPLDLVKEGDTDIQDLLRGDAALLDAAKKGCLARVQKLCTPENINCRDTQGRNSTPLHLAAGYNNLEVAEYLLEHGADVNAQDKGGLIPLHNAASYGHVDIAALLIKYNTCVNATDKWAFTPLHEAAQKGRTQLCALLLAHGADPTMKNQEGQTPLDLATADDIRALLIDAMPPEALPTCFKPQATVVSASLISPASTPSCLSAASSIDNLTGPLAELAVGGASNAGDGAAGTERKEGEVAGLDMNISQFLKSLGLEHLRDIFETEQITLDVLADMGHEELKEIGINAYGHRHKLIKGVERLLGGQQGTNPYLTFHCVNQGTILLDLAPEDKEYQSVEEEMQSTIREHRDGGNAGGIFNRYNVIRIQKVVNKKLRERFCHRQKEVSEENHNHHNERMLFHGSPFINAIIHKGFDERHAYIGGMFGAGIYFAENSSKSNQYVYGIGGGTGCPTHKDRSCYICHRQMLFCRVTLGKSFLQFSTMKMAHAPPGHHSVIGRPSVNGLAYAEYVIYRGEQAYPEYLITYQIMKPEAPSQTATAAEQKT
Test: Inhibition of human recombinant […] TNKS1 (1030 to 1317 residues) expressed in Escherichia coli assessed as inhibition by fluorescence based analysis

Row | IC50 | SMILES
1 | 21 nM | O=C(Nc1ccc(-c2nc3ccccc3c(=O)[nH]2)cc1)c1cccs1
2 | 23 nM | COC(=O)c1ccc(-c2nc3ccccc3c(=O)[nH]2)cc1
3 | 15 nM | O=C1OCCN1c1ccc(-c2nc3ccccc3c(=O)[nH]2)cc1
4 | 5 nM | CC1(c2ccc(-c3nc4ccccc4c(=O)[nH]3)cc2)NC(=O)NC1=O (stereo not given)
5 | 12 nM | NS(=O)(=O)c1ccc(-c2nc3ccccc3c(=O)[nH]2)cc1
